Data: patent US20240189279A1, “IMMUNOMODULATORY COMPOSITIONS AND METHODS OF USE THEREOF” (THE TEXAS A&M UNIVERSITY SYSTEM, priority 2022, published 2024)

Legend:
AMPK = AMPK Western blot analysis of liver tissue of WD mice; type: in vivo, mice (male B6 129SF1/J); details: week 16; dose-dependent, reverses WD-induced downregulation
From the text: Animal experiments. Male B6 129SF1/J mice at 6 weeks of age were obtained from Jackson Laboratories (Bar Harbor, ME). Mice were acclimatized to the animal facility for one week. At the start of the experiment, mice were randomly divided into four groups (n=10 for each group). Three of the four groups were fed ad libitum a Western diet (WD) with 40% Kcal from fat and containing 0.15% cholesterol (D12079B, Research Diets) and a sugar water (SW) solution (23.1 g/L d-fructose+18.9 g/L d-glucose) as previously described (DIAMOND model (15)). After 8 weeks, the three groups of WD-fed mice were randomly selected for treatment with vehicle (WD group) or low (WD-50 group) or high dose (WD-100 group) of […]. The WD group was fed WD and drank sugar water. The WD-50 and WD-100 groups were fed WD and drank sugar water containing, respectively, 50 or 100 mg […] per kg body weight. The treatments were continued for another 8 weeks. Water bottles containing SW and […] or only SW were changed every other day. […] The protein concentration was determined using the BCA protein assay kit (Pierce). […] Proteins were quantified by normalizing the intensity of the protein band of interest to the intensity of the j-actin band in the same lane using the Image Lab software (Bio-Rad, Hercules, CA).

[1] = tested on: palmitate and LPS stimulated macrophages; experiment: Cytokine production in palmitate and LPS stimulated macrophages; type: cell-based
[2] = I3A levels in fecal material, liver and serum after I3A in drinking water; type: in vivo, mice (male B6 129SF1/J); details: WD and sugar water containing I3A vs same WD and SW without I3A
From the text: Animal experiments. Male B6 129SF1/J mice at 6 weeks of age were obtained from Jackson Laboratories (Bar Harbor, ME). Mice were acclimatized to the animal facility for one week. At the start of the experiment, mice were randomly divided into four groups (n=10 for each group). Three of the four groups were fed ad libitum a Western diet (WD) with 40% Kcal from fat and containing 0.15% cholesterol (D12079B, Research Diets) and a sugar water (SW) solution (23.1 g/L d-fructose+18.9 g/L d-glucose) as previously described (DIAMOND model (15)). […] The WD group was fed WD and drank sugar water. […] The treatments were continued for another 8 weeks. Water bottles containing SW and I3A or only SW were changed every other day. A fourth group of mice was fed a low-fat control diet (D12450B, Research Diets) and normal water for 16 weeks (CN group) (FIG. 9A). FIG. 9A presents the study design. Mice belonging to the same treatment group were housed together (5 mice/cage). Mice were maintained on 12:12-h light-dark cycles. All procedures were performed in accordance with Texas A&M University Health Sciences Center Institutional Animal Care and Use Committee guidelines under an approved animal use protocol (AUP #2017-0145).
Sample collection. […] FIG. 9B presents the sampling scheme. All fecal pellets were flash frozen in liquid nitrogen after collection. […]

Q: Which results are given for O=C([O-])Cc1c[nH]c2ccccc12.[Na+] [I3A, Indole-3-acetate sodium salt]?
A: liver AMPK and p-AMPK levels (AMPK): increased both AMPK as well as p-AMPK; production of TNF-α, IL-1β, and MCP-1 [1]: dose-dependently attenuated the production of TNF-α, IL-1β, and MCP-1; I3A levels in fecal material, liver and serum [2]: increased I3A levels in fecal material, the liver and serum
